Assay [1] relates to Staphylococcus aureus (S. aureus) 11540 strain. The assay is described as follows: Standard microdilution MIC assay, S. aureus. It is filed as cell-based. The method, then: (§1) The in vitro activity of the compounds of the present disclosure can be determined. Antimicrobial testing is typically performed to determine the minimum inhibitory concentration (MIC). Minimum inhibitory concentrations (MICs) are determined by the microdilution method in a final volume of 100 μl according to protocols outlined by The Clinical and Laboratory Standards Institute (CLSI). Performance standards for reference strains are assessed within the same experimental design to maintain quality control. See, for example, Clinical Laboratory Standards Institute: Methods for dilution antimicrobial susceptibility tests for bacteria that grow aerobically M7-A8. Approved Standard-Eighth Edition. Wayne, PA: CLSI; December 2008; and Clinical Laboratory Standards Institute: Performance Standards for Antimicrobial Susceptibility Testing M100-S20; Approved Standard-Twentieth Edition. Wayne, PA: CLSI; June 2010.
(§2) The compounds of the present disclosure were tested for antimicrobial activity. The Compounds 1-293 were run against Escherichia coli (E co/i) strain ATCC25922 and against Staphylococcus aureus (S. aureus) 11540 strain using a standard microdilution assay to determine minimum inhibitory concentrations (MICs). […] It will be recognized by one skilled in the art that the compounds can be assessed against other bacterial organisms and that the presentation of data for activity against Escherichia coli and Staphylococcus aureus are illustrative and in no way is intended to limit the scope of the present disclosure. The compounds of the present disclosure can be assayed against a range of other microorganisms depending upon the performance activity desired to be gathered. Furthermore, the “+” and “−” representation and the selection of a cutoff value of 16 micrograms/mL is also illustrative and in no way is intended to limit the scope of the present disclosure.
Background: In broth dilution the organism is exposed to a series of concentrations in liquid medium.

Assay [2] deals with Escherichia coli strain ATCC25922. The assay is described as follows: Standard microdilution MIC assay, E. coli. In kind it is cell-based. The method, then:
as §1, §2

As for `COC[C@H](N)CCCc1cc(Cl)c(F)c(-c2cc3cn(-c4ccc([C@@H]5CCC[C@@H](CCNC(C)=N)N5)c(F)c4)c(=O)nc3[nH]2)c1` [Compound 171], the MIC in assay [1] and in assay [2] was at most 16 µg/mL throughout.
`C=C[C@@H](CCNC(C)=N)N[C@@H](C)c1ccc(-n2cc3cc(-c4cc(CCC[C@H](C)N)cc(Cl)c4F)[nH]c3nc2=O)cc1F` [Compound 183]: the MIC in assay [1] and in assay [2] was at most 16 µg/mL each time.
With `CSc1cc(-n2cc3cc(-c4cc(CCC[C@@H](N)C5CC5)cc(C(F)(F)F)c4)[nH]c3nc2=O)cc(F)c1[C@@H]1CCC[C@@H](CCNC(C)=N)N1` [Compound 286], the MIC in assay [1] and in assay [2] was at most 16 µg/mL each time.
Turning to `CC(=N)NCC[C@@H]1CCC[C@@H](c2ccc(-n3cc4cc(-c5cc(CCC[C@@H](N)C6CC6)cc(Cl)c5F)[nH]c4nc3=O)cc2)N1` [Compound 78], the MIC in assay [1] and in assay [2] was at most 16 µg/mL throughout.
Consider `C=C[C@@H](CCNC(=N)CC(F)(F)F)NCc1ccc(-n2cc3cc(-c4cc(CCC[C@H](C)N)cc(Cl)c4F)[nH]c3nc2=O)cc1` [Compound 58], for which the MIC in assay [1] and in assay [2] was at most 16 µg/mL throughout.
Take `CC(=N)NCCCN[C@@H](C)c1ccc(-n2cc3cc(-c4cc(CCCC5(N)CC5)cc(Cl)c4F)[nH]c3nc2=O)cc1` [Compound 131]: the MIC in assay [1] and in assay [2] was at most 16 µg/mL in each case.
`CC(C)(N)CCCc1cc(Cl)c(F)c(-c2cc3cn(-c4ccc([C@@H]5COC[C@@H](CCNC(=N)CF)N5)cc4)c(=O)nc3[nH]2)c1` [Compound 69]: the MIC in assay [1] and in assay [2] was at most 16 µg/mL in each case.
As to `C=C[C@H](N)CCCc1cc(Cl)c(F)c(-c2cc3cn(-c4cc(F)c([C@@H]5CCC[C@@H](CCNC(C)=N)N5)c(SC)c4)c(=O)nc3[nH]2)c1` [Compound 274], the MIC in assay [1] and in assay [2] was at most 16 µg/mL in each case.
For the molecule `C=C[C@@H](N)CCCc1cc(Cl)c(F)c(-c2cc3cn(-c4ccc(CN[C@@H](CO)CCNC(C)=N)cc4)c(=O)nc3[nH]2)c1` [Compound 39], the MIC in assay [1] and in assay [2] was at most 16 µg/mL throughout.
As for `COC[C@H](N)CCCc1cc(OC(F)(F)F)c(F)c(-c2cc3cn(-c4ccc([C@@H]5CSC[C@@H](CCNC(C)=N)N5)cc4)c(=O)nc3[nH]2)c1` [Compound 270], the MIC in assay [1] and in assay [2] was at most 16 µg/mL throughout.
For the molecule `CC(=N)NCC[C@@H]1CCC[C@@H](c2ccc(-n3cc4cc(-c5cc(CCC[C@@H](N)CF)cc(Cl)c5F)[nH]c4nc3=O)cc2F)N1` [Compound 170], the MIC in assay [1] and in assay [2] was at most 16 µg/mL in each case.
Regarding `CC(=N)NCC[C@@H]1CCC[C@@H](c2ccc(-n3cc4cc(-c5cc(CCC[C@H](C)N)cc(Cl)c5F)[nH]c4nc3=O)cc2)N1CCF` [Compound 364], the MIC in assay [1] and in assay [2] was at most 16 µg/mL in each case.
For the molecule `COC[C@H](N)CCCc1cc(OC(F)(F)F)c(F)c(-c2cc3cn(-c4ccc([C@@H]5CCC[C@@H](CCNC(C)=N)N5)nc4)c(=O)nc3[nH]2)c1` [Compound 347], the MIC in assay [1] and in assay [2] was at most 16 µg/mL in each case.
As to `CC(=N)NCC[C@@H]1CCC[C@@H](c2ccc(-n3cc4cc(-c5cc(CCC[C@H](N)C(F)F)cc(Cl)c5F)[nH]c4nc3=O)cc2)N1` [Compound 141], the MIC in assay [1] and in assay [2] was at most 16 µg/mL throughout.
With `CC(=N)NCC[C@@H]1COC[C@@H](c2ccc(-n3cc4cc(-c5cc(CCC[C@H](C)N)cc(Cl)c5F)[nH]c4nc3=O)cc2)N1` [Compound 47], the MIC in assay [1] and in assay [2] was at most 16 µg/mL in each case.
On to `CC(=N)NCC[C@@H]1CCC[C@@H](c2ccc(-n3cc4cc(-c5cc(CCC[C@@H]6COCC(=O)N6)cc(Cl)c5F)[nH]c4nc3=O)cc2)N1` [Compound 227], for which the MIC in assay [1] and in assay [2] was at most 16 µg/mL each time.
In the case of `C=C[C@@H](CCNC(=N)COC)NCc1ccc(-n2cc3cc(-c4cc(CCC[C@H](C)N)cc(Cl)c4F)[nH]c3nc2=O)cc1` [Compound 53], the MIC in assay [1] and in assay [2] was at most 16 µg/mL in each case.
Regarding `CC(=N)NCC[C@@H]1CCC[C@@H](c2ccc(-n3cc4cc(-c5cc(CCC[C@H](C)N)cc(Cl)c5F)[nH]c4nc3=O)cc2)N1CCc1cccnc1` [Compound 261], the MIC in assay [1] and in assay [2] was at most 16 µg/mL in each case.
Take `CC(=N)NCC[C@@H]1CCC[C@@H](c2c(F)cc(-n3cc4cc(-c5cc(CCC[C@@H](N)CO)cc(Cl)c5F)[nH]c4nc3=O)cc2F)N1` [Compound 281]: the MIC in assay [1] and in assay [2] was at most 16 µg/mL each time.
`CC(=N)N[C@H](C)C[C@@H]1CCC[C@@H](c2ccc(-n3cc4cc(-c5cc(CCC[C@@H](N)C6CC6)cc(Cl)c5F)[nH]c4nc3=O)cc2)N1` [Compound 257]: the MIC in assay [1] and in assay [2] was at most 16 µg/mL throughout.
Take `CSc1cc(-n2cc3cc(-c4cc(CCC[C@@H](N)CF)cc(C(F)(F)F)c4F)[nH]c3nc2=O)ccc1[C@@H]1CCC[C@@H](CCNC(C)=N)N1` [Compound 255]: the MIC in assay [1] and in assay [2] was at most 16 µg/mL throughout.
Turning to `CSc1cc(-n2c(C)c3cc(-c4cc(CCC[C@@H](N)C5CC5)cc(Cl)c4F)[nH]c3nc2=O)ccc1[C@@H]1CCC[C@@H](CCNC(C)=N)N1` [Compound 335], the MIC in assay [1] and in assay [2] was at most 16 µg/mL throughout.
As for `COC[C@H](N)CCCc1cc(-c2cc3cn(-c4ccc([C@@H]5CCC[C@@H](CCNC(C)=N)N5)c(OC(F)(F)F)c4)c(=O)nc3[nH]2)c(F)c(C(F)(F)F)c1` [Compound 216], the MIC in assay [1] and in assay [2] was at most 16 µg/mL each time.
For the molecule `C=C[C@@H](CCNC(C)=N)N[C@@H](C)c1ccc(-n2cc3cc(-c4cc(CCC[C@@H](N)CF)cc(Cl)c4F)[nH]c3nc2=O)cc1F` [Compound 186], the MIC in assay [1] and in assay [2] was at most 16 µg/mL each time.
With `CN1[C@H](CCNC(=N)CF)CCC[C@H]1c1ccc(-n2cc3cc(-c4cc(CCC[C@@H](N)CO)cc(Cl)c4F)[nH]c3nc2=O)cc1` [Compound 122], the MIC in assay [1] and in assay [2] was at most 16 µg/mL in each case.
With `COC[C@H](N)CCCc1cc(-c2cc3cn(-c4ccc([C@@H]5CCC[C@@H](CCNC(C)=N)N5)c(OC)c4)c(=O)nc3[nH]2)cc(C(F)(F)F)c1` [Compound 210], the MIC in assay [1] and in assay [2] was at most 16 µg/mL in each case.
As for `CSc1cc(-n2cc3cc(-c4cc(CCC[C@@H](N)C5CC5)cc(OC(F)(F)F)c4F)[nH]c3nc2=O)cc(F)c1[C@@H]1CCC[C@@H](CCNC(C)=N)N1` [Compound 242], the MIC in assay [1] and in assay [2] was at most 16 µg/mL each time.
For `C=C[C@@H](N)CCCc1cc(Cl)c(F)c(-c2cc3cn(-c4ccc([C@@H]5CCC[C@@H](CCNC(C)=N)N5)c(SC)c4)c(=O)nc3[nH]2)c1` [Compound 128], the MIC in assay [1] and in assay [2] was at most 16 µg/mL in each case.
Turning to `C=C[C@H](N)CCCc1cc(-c2cc3cn(-c4ccc([C@@H]5CCC[C@@H](CCNC(C)=N)N5CCCF)cc4)c(=O)nc3[nH]2)cc(C(F)(F)F)c1` [Compound 346], the MIC in assay [1] and in assay [2] was at most 16 µg/mL each time.
Turning to `CC(=N)NCCCN[C@@H](C)c1ccc(-n2cc3cc(-c4cc(CCC[C@@H](N)C5CC5)cc(Cl)c4F)[nH]c3nc2=O)cc1F` [Compound 99], the MIC in assay [1] and in assay [2] was at most 16 µg/mL in each case.
Consider `CC(=N)NCC[C@@H]1CCC[C@@H](c2ccc(-n3cc4cc(-c5cc(CCCC6(N)CC6)cc(Cl)c5F)[nH]c4nc3=O)cc2F)N1` [Compound 169], for which the MIC in assay [1] and in assay [2] was at most 16 µg/mL throughout.
For `C=CC(CCNC(=N)CF)NCc1ccc(-n2cc3cc(-c4cc(CCC[C@@H](N)C(F)(F)F)cc(Cl)c4F)[nH]c3nc2=O)cc1` (stereo partly shown) [Compound 13], the MIC in assay [1] and in assay [2] was above 16 µg/mL each time.
For `CC(=N)NCC[C@@H]1CCC[C@@H](c2ccc(-n3cc4cc(-c5cc(CCC[C@@H](N)CF)cc(Cl)c5F)[nH]c4nc3=O)cc2)N1` [Compound 104], the MIC in assay [1] and in assay [2] was at most 16 µg/mL each time.
For `C=C[C@@H](CCNC(C)=N)N[C@@H](C)c1ccc(-n2cc3cc(-c4cc(CCC[C@@H](N)C5CC5)cc(Cl)c4F)[nH]c3nc2=O)cc1` [Compound 164], the MIC in assay [1] and in assay [2] was at most 16 µg/mL throughout.
For `COC[C@H](N)CCCc1cc(OC(F)(F)F)c(F)c(-c2cc3cn(-c4ccc([C@@H]5CCC[C@@H](C[C@H](C)NC(C)=N)N5)cc4)c(=O)nc3[nH]2)c1` [Compound 258], the MIC in assay [1] and in assay [2] was at most 16 µg/mL in each case.
With `CC(=N)NCCCNC1(c2ccc(-n3cc4cc(-c5cc(CCC[C@@H](N)CO)cc(Cl)c5F)[nH]c4nc3=O)cc2)CC1` [Compound 138], the MIC in assay [1] and in assay [2] was at most 16 µg/mL throughout.
Turning to `C=C[C@@H](N)CCCc1cc(Cl)c(F)c(-c2cc3cn(-c4ccc(CN[C@H](C=C)CCNC(C)=N)cc4)c(=O)nc3[nH]2)c1` [Compound 31], the MIC in assay [1] and in assay [2] was at most 16 µg/mL each time.
Take `CC(=N)NCC[C@H](CNc1ncc[nH]1)NCc1ccc(-n2cc3cc(-c4cc(CCC[C@H](C)N)cc(Cl)c4F)[nH]c3nc2=O)cc1` [Compound 19]: the MIC in assay [1] and in assay [2] was at most 16 µg/mL in each case.

Values taken from US11999739B2, “Antimicrobials methods of making and using the same” (BIOVERSYS AG, priority 2016, dated 2024).
